Experimental data published in article PMC11850616, “Nanomolar inhibitor of the galectin-8 N-terminal domain binds via a non-canonical cation-π interaction” (Communications Chemistry, 2025).
Where “and” joins values, the source holds several entries; their conditions need not be identical. Equal values may be shown once. Read-outs that look alike come from different tables or passages of the source.

Tests used:
[1] = target: T1, Gal-8N (galectin-8 N-terminal domain) (Homo sapiens, UniProt O00214); details: cited from earlier work
T1 construct: made in house
T1 sequence (O00214 19-152 limits assumed): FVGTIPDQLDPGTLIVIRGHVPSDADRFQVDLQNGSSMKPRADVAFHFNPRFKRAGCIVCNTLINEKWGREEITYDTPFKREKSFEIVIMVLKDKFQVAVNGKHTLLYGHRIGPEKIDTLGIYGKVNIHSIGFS

Gal-3 [2] = target: T2, Gal-3 (Homo sapiens, UniProt P17931); details: cited from earlier work
T2 construct: made in house

[3] = target: T1, Gal-8N (galectin-8 N-terminal domain); test: competitive fluorescence polarisation assay, Gal-8N; type: binding; details: competitive FP, mean ± SEM of n = 4 to 8, 20 °C; read-out: Kd Gal-8N
Protocol: (§1) Human galectins-1, -3, and -8N were expressed and purified as described previously[8],[23],[24]. Competitive fluorescence polarization assays were performed with a PHERAstar FS plate reader with software PHERAstar Mars version 2.10 R3 (BMG, Offenburg, Germany) and Tecan Spark multimode microplate reader (Tecan Trading AG, Switzerland), where a fluorescence anisotropy of fluorescent-tagged probes was measured by excitation at 485 nm and emission at 520 nm. Experiments were performed at 20 °C with Gal-1 at 0.5 µM, Gal-3 at 0.2 µM, and Gal-8N at 0.4 µM. Fluorescent probes used for experiments were 3,3′-dideoxy-3-[4-(fluorescein-5-yl-carbonylaminomethyl)-1H-1,2,3-triazol-1-yl]-3′-(3,5-di-methoxybenzamido)-1,1′-sulfanediyl-di-β-D-galactopyranoside at 0.02 µM for Gal-1 and -3 and 2-(fluorescein-5-yl-carbonylamino)ethyl β-D-galactopyranosyl(1-4)-2-acetamido-2-deoxy-β-D-glucopyranosyl(1–3)-β-D-galactopyranosyl(1–4)-β-D-glucopyranoside at 0.1 µM for Gal-8N in each well. Compounds were first dissolved in pure DMSO at 20 mM concentration and later diluted in 5% DMSO in PBS solution to 5-7 different concentrations. Each concentration was tested in duplicate. The highest inhibitor concentrations tested were 1.5 mM. The average values of Kd and SEM (standard error mean) were calculated from 4 to 8 duplicate measurements, showing 10–90% inhibition.

Gal-8N [4] = target: T3, Gal-8N (Homo sapiens, UniProt O00214); test: isothermal titration calorimetry (ITC), binding to Gal-8N; details: for -TΔS / Kd / ΔG / ΔH: 25 °C, PBS buffer, 1:1 binding model, n = 2; for ΔΔH compared to 1: difference vs compound 1
T3 construct: consisting of residues 4-158 was produced by Lund Protein Production Platform; made in house; host or cells: E. coli TUNER(DE3)
T3 sequence (O00214 4-158): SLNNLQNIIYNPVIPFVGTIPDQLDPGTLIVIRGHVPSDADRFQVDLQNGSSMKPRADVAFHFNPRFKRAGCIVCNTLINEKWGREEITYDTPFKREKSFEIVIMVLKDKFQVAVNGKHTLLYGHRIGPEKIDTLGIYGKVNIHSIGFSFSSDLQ
Protocol: Isothermal titration calorimetry (ITC) experiments were conducted using a Microcal PEAQ-ITC isothermal titration calorimeter (Malvern Instruments, Malvern Panalytical Ltd) at 25 °C. Lyophilized Gal-8N was first dissolved in PBS buffer (with a 4.3 mM β-mercaptoethanol) with a pH = 7.4 and Gal-8N was dialyzed with a 0.5–3 mL Slide-A-Lyzer™ 7k MWCO Dialysis Cassette in the same buffer. To remove residual lactose, Gal-8N was additionally purified using Superdex 75 Increase column equilibrated in PBS with 5% DMSO. Fractions containing Gal-8N were collected and concentrated with Amicon® Ultra-0.5 Centrifugal Filter Device with a 10k MWCO to a final concentration of about 40 µM. A280 was measured using the NanoDrop^TM One Microvolume UV-VIS spectrophotometer and the concentration of Gal-8N was calculated (ε = 11460 L mol^−1 cm^−1 was used). 16 mM stock solutions of 1, 11, and 29 were prepared in pure DMSO. The 16 mM stock solutions were diluted to 800 μM with pure PBS and then to the final concentration of 560 μM (the final content of DMSO was 5%). Titrations were performed with 19 injections of Gal-8N inhibitors 1, 11 (560 μM) and 29 (800 μM) with a following settings: reference power = 10.0 µcal s^−1, feedback = high, stir speed = 750, Initial delay = 100 s, first spacing = 200 s, the other spacings = 150 s.
Raw thermograms were exported and integrated with the NITPIC (version 2.0.7)[43] and then analyzed with SEDPHAT (version 15.2)[44],[45]. Parameter and error analysis were performed using the Monte-Carlo approach for nonlinear regression with 1000 iterations as implemented in SEDPHAT.

Gal-8C = target: T4, Gal-8C (Homo sapiens, UniProt O00214); test: competitive fluorescence polarisation assay, Gal-8C; type: binding; details: for Kd: competitive FP, mean ± SEM of n = 4 to 8; for Gal-8C selectivity ratio Kd (Gal-8C)/Kd (Gal-8N): ratio of FP Kd values
T4 construct: than to the C-terminal domain (Gal-8C)
T4 sequence (O00214 187-317 limits assumed): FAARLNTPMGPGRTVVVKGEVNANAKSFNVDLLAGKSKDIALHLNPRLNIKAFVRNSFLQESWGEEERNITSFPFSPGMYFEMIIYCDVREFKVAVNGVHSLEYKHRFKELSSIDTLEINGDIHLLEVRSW

Gal-1 = target: T5, Gal-1 (Homo sapiens, UniProt P09382); test: competitive fluorescence polarisation assay, Gal-1; type: binding; details: for Kd: competitive FP, mean ± SEM of n = 4 to 8, 20 °C; for Gal-1 selectivity ratio Kd (Gal-1)/Kd (Gal-8N): ratio of FP Kd values
T5 construct: made in house
Protocol: as §1

Gal-8N [5] = target: T3, Gal-8N; test: ligand efficiency (LE) and ligand-lipophilicity efficiency (LLE) calculations; details: for LLE: from Gal-8N Kd and clogP; for LE: from Gal-8N Kd and number of non-hydrogen atoms
Gal-3 [6] = target: T2, Gal-3; test: competitive fluorescence polarisation assay, Gal-3; type: binding; details: for Kd: competitive FP, mean ± SEM of n = 4 to 8, 20 °C, read-out: Kd Gal-3; for Gal-3 selectivity ratio Kd (Gal-3)/Kd (Gal-8N): ratio of FP Kd values
Protocol: as §1

T5 sequence (P09382 whole entry): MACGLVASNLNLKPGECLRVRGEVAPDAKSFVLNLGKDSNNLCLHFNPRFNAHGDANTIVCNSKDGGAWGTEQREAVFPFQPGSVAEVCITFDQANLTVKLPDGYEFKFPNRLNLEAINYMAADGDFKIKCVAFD
T2 sequence (P17931 whole entry): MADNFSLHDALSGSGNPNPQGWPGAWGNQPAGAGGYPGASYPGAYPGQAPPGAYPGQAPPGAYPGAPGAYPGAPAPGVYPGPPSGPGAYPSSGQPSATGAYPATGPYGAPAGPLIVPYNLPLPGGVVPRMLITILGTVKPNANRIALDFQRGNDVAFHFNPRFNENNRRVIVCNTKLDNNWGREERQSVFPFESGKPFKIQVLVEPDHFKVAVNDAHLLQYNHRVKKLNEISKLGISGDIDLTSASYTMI

Kd [3] [µM]	-TΔS (Gal-8N [4])	Kd (Gal-8N [4]) [µM]	ΔG (Gal-8N [4])	ΔH (Gal-8N [4])	ΔΔH compared to 1 (Gal-8N [4])	ΔΔH compared to 29 (Gal-8N [4]; difference vs compound 29)	Kd (Gal-8C) [µM]	Gal-8C selectivity ratio Kd (Gal-8C)/Kd (Gal-8N) (Gal-8C)	Kd (Gal-1) [µM]	LLE (Gal-8N [5])	LE (Gal-8N [5])	Kd (Gal-3 [6]) [µM]	Gal-3 selectivity ratio Kd (Gal-3)/Kd (Gal-8N) (Gal-3 [6])	Gal-1 selectivity ratio Kd (Gal-1)/Kd (Gal-8N) (Gal-1)	Compound	Kd [1] [µM]	Kd (Gal-3 [2]; Fig. 1, earlier inhibitors, read-out: Kd: galectin-3) [µM]	selectivity over Gal-3 (Gal-3 [2]; Gal-8N over Gal-3) [fold]	Gal-3 selectivity ratio Kd (Gal-3)/Kd (Gal-8N) (Gal-3 [2]; selectivity for Gal-8N over Gal-3 (fold))	Kd (Gal-3 [2]; read-out: affinity for Gal-3) [µM]
4.1 ± 0.33							350 ± 60	85	99 ± 3.1	0.109	0.147 (kcal/mol)/heavy atom	23 ± 4.9	5.6	24	COC(=O)c1ccc(-n2cc(CO[C@@H]3[C@@H](OCc4nc5ccc(C(=O)O)cc5n4C)[C@@H](O)[C@@H](CO)O[C@@H]3Sc3ccc(Cl)c(Cl)c3)nn2)cc1 [Compound 15c]					
0.46 ± 0.03							159 ± 4	346	26 ± 1.1	1.26	0.177 (kcal/mol)/heavy atom	1.2 ± 0.2	2.6	57	Cn1c(CO[C@H]2[C@@H](O)[C@@H](CO)O[C@H](Sc3ccc(Cl)c(Cl)c3)[C@@H]2OCc2cn(-c3ccccc3C(=O)O)nn2)nc2ccc(C(=O)O)cc21 [Compound 16a]					
0.65 ± 0.05							100 ± 2	154	37 ± 1.1	1.11	0.173 (kcal/mol)/heavy atom	2.9 ± 0.4	4.5	57	Cn1c(CO[C@H]2[C@@H](O)[C@@H](CO)O[C@H](Sc3ccc(Cl)c(Cl)c3)[C@@H]2OCc2cn(-c3cccc(C(=O)O)c3)nn2)nc2ccc(C(=O)O)cc21 [Compound 16b]					
1.1 ± 0.07							201 ± 37	183	45 ± 0.8	0.888	0.167 (kcal/mol)/heavy atom	6.2 ± 1.1	5.6	41	Cn1c(CO[C@H]2[C@@H](O)[C@@H](CO)O[C@H](Sc3ccc(Cl)c(Cl)c3)[C@@H]2OCc2cn(-c3ccc(C(=O)O)cc3)nn2)nc2ccc(C(=O)O)cc21 [Compound 16c]					

The remaining lines, values behind:

Compound	Kd [3] [µM]	-TΔS (Gal-8N [4])	Kd (Gal-8N [4]) [µM]	ΔG (Gal-8N [4])	ΔH (Gal-8N [4])	ΔΔH compared to 1 (Gal-8N [4])	ΔΔH compared to 29 (Gal-8N [4]; difference vs compound 29)	Kd (Gal-8C) [µM]	Gal-8C selectivity ratio Kd (Gal-8C)/Kd (Gal-8N) (Gal-8C)	Kd (Gal-1) [µM]	LLE (Gal-8N [5])	LE (Gal-8N [5])	Kd (Gal-3 [6]) [µM]	Gal-3 selectivity ratio Kd (Gal-3)/Kd (Gal-8N) (Gal-3 [6])	Gal-1 selectivity ratio Kd (Gal-1)/Kd (Gal-8N) (Gal-1)	Kd [1] [µM]	Kd (Gal-3 [2]; Fig. 1, earlier inhibitors, read-out: Kd: galectin-3) [µM]	selectivity over Gal-3 (Gal-3 [2]; Gal-8N over Gal-3) [fold]	Gal-3 selectivity ratio Kd (Gal-3)/Kd (Gal-8N) (Gal-3 [2]; selectivity for Gal-8N over Gal-3 (fold))	Kd (Gal-3 [2]; read-out: affinity for Gal-3) [µM]
O=C(O)[C@H](CC1CCCCC1)O[C@@H]1[C@@H](O)[C@@H](Sc2ccc(Cl)c(Cl)c2)O[C@H](CO)[C@@H]1O [Compound 2]																12	82	6.8		
Cn1c(CO[C@@H]2C=CO[C@H](CO)[C@@H]2O)nc2ccc(C(=O)O)cc21 [Compound 3]																			14	
C#CCO[C@@H]1[C@@H](OCc2nc3ccc(C(=O)O)cc3n2C)[C@@H](O)[C@@H](CO)O[C@@H]1Sc1ccc(Cl)c(Cl)c1 [Compound 11]	0.8 ± 0.09	6.69 ± 2.2 kcal/mol and 6.69 kcal/mol	1.3	-8.01 ± 0.12 kcal/mol and -8.01 kcal/mol	-14.6 ± 1.9 kcal/mol and -14.6 kcal/mol	–17 kJ mol^−1	–4 kJ mol^−1	390 ± 14	488	10 ± 0.71	2.01	0.226 (kcal/mol)/heavy atom	1.4 ± 0.2	1.75						
Cn1c(CO[C@H]2[C@@H](O)[C@@H](CO)O[C@H](Sc3ccc(Cl)c(Cl)c3)[C@@H]2OCC2CCCCC2)nc2ccc(C(=O)O)cc21 [Compound 19]	4.1 ± 0.61							662 ± 27	161	76 ± 15	-0.926	0.180 (kcal/mol)/heavy atom	21 ± 1.5	5.1	18.5					
Cn1c(CO[C@H]2[C@@H](O)[C@@H](CO)O[C@H](Sc3ccc(Cl)c(Cl)c3)[C@@H]2OCC2CCC2)nc2ccc(C(=O)O)cc21 [Compound 25]	1.6 ± 0.07							383 ± 21	239	16 ± 0.5	0.593	0.204 (kcal/mol)/heavy atom	9.4 ± 1.9	5.9	10					
Cn1c(CO[C@H]2[C@@H](O)[C@@H](CO)O[C@H](Sc3ccc(Cl)c(Cl)c3)[C@@H]2OCC(=O)O)nc2ccc(C(=O)O)cc21 [Compound 29]	0.5 ± 0.03	5.26 ± 0.72 kcal/mol and 5.26 kcal/mol	0.6	-8.44 ± 0.096 kcal/mol and -8.44 kcal/mol	-13.6 ± 0.72 kcal/mol and -13.6 kcal/mol	–13 kJ mol^−1		449 ± 39	898	49 ± 3.6	2.84	0.227 (kcal/mol)/heavy atom	3.3 ± 0.2	6.6	98					
CO[C@@H]1[C@@H](OCc2nc3ccc(C(=O)O)cc3n2C)[C@@H](O)[C@@H](CO)O[C@@H]1Sc1ccc(Cl)c(Cl)c1 [Compound 32]	1.3 ± 0.05							358 ± 29	275	16 ± 0.8	2.08	0.231 (kcal/mol)/heavy atom	4.5 ± 0.7	3.5	12.3					
O=C[C@H](O)[C@@H](O)[C@@H](O)[C@H](O)CO [D-galactose]																				~5000
